According to patent US11774460B2, “Diagnostic or predictor of relapsing remitting multiple sclerosis” (Dignity Health, priority 2016, dated 2023):

Test system: Factor VIII activity
Test: Factor VIII activity in blood of multiple sclerosis patients under treatment
Type: in vivo, human
Settings: MS patient with elevated Factor VIII activity during exacerbation
Source text: In various embodiments, disclosed herein is a method of detecting or predicting a relapse of multiple sclerosis in an individual afflicted with a form of multiple sclerosis, comprising: (a) providing a blood sample of the individual; (b) testing the blood sample to determine a protein activity or protein level, wherein the protein is Factor VIII, von Willebrand factor, or Protein C; and (c) detecting a relapse of multiple sclerosis in the individual if the protein activity or protein level is elevated compared to the protein activity or protein level in an individual not afflicted with the form of multiple sclerosis or the patient's own lowest baseline value as a form of a control. In some of these embodiments, the form of multiple sclerosis is relapsing-remitting multiple sclerosis with or without secondary progression. In some embodiments, the multiple sclerosis in the individual is in remission. In some embodiments, the blood sample test to determine the protein activity or protein level is performed simultaneously with other blood tests, such as, partial thromboplastin time (PTT) test, International Normalized Ratio (INR) test, and erythrocyte sedimentation rate (ESR) test. In some of these embodiments, the blood sample tests are performed at least once per month during the treatment period and/or monitoring period of multiple sclerosis. […]

TYSABRI: disease-modifying therapy for multiple sclerosis named only by trade name
Factor VIII activity after treatment: returned to normal
